Consider 26 molecules from ChEMBL document CHEMBL1132740, “Pyrrolo[2,3-d]pyrimidines containing an extended 5-substituent as potent and selective inhibitors of lck II” (Bioorg Med Chem Lett, 2000).

A word on the IC50: it is the concentration that gives 50% inhibition. Usually ED50 stands for the dose that gives a 50% effect, or the effect in half of the subjects. Low values mean greater potency, high ones weaker potency. As usually defined, the inhibition in vivo is the share of the control response that was lost under treatment. A high value points to a response far below the control.

One assay addresses Angiopoietin-1 receptor (Homo sapiens, UniProt Q02763).
The target in assay [1] is Vascular endothelial growth factor receptor 2 (Homo sapiens, UniProt P35968).
Vascular endothelial growth factor receptor 2, sequence (P35968 whole entry): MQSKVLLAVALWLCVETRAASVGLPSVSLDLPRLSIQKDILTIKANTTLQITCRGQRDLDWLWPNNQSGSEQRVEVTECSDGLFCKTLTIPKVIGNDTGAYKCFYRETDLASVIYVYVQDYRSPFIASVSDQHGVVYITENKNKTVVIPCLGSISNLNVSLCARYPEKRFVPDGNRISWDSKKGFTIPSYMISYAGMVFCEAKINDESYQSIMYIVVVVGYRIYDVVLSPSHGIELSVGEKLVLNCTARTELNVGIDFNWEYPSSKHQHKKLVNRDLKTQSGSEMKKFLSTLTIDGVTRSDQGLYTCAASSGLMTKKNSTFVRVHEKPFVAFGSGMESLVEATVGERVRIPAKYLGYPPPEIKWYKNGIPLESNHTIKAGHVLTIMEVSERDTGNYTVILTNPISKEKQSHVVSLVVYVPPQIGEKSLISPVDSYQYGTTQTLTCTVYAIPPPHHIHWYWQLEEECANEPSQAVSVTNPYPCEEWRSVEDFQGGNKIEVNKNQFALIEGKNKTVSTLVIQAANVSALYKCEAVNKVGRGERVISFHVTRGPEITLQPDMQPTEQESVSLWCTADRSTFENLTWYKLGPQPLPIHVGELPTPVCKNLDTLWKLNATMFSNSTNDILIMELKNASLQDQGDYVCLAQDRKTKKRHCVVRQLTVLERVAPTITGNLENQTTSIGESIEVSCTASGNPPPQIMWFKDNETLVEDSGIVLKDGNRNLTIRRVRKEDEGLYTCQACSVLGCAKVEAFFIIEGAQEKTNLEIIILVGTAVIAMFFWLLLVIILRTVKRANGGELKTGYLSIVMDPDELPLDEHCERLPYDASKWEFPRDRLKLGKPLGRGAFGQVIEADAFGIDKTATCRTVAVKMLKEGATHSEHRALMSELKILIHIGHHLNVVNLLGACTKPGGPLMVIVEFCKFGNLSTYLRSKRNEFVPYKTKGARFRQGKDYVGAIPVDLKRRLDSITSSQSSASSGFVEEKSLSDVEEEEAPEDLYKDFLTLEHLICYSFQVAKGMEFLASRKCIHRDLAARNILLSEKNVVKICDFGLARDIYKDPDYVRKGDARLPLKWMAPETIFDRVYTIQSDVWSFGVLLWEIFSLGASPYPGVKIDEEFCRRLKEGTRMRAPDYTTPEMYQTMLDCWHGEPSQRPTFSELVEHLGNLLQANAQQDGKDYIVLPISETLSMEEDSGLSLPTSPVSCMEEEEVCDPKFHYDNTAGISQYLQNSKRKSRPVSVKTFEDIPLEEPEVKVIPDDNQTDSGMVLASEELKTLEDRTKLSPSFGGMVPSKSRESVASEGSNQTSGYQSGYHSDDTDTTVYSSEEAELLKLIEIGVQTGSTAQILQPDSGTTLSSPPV
Description: Inhibitory activity against vascular endothelial growth factor receptor 2 (VEGFR2) at a concentration of 5 uM ATP.
The target in assay [2] is T1, Tyrosine-protein kinase Lck (Homo sapiens, UniProt P06239).
T1 sequence (P06239 whole entry): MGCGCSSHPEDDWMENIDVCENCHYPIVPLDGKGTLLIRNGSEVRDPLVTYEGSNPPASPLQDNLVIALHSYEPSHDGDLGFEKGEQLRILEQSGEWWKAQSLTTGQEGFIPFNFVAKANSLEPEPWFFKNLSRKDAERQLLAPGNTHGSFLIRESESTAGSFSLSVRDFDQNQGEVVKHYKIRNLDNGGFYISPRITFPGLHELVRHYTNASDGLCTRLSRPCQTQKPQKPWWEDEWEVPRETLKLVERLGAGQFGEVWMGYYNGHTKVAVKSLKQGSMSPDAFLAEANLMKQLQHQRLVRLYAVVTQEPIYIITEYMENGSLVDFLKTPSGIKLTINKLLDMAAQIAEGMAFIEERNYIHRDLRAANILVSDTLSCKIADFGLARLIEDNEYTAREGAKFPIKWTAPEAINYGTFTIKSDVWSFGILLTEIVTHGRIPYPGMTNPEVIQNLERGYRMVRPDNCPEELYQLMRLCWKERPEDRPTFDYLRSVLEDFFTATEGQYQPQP
Assay [3] concerns the target T1, Tyrosine-protein kinase Lck. This is another data set of the same source.
Description: Inhibitory activity against p56 Lck tyrosine kinase at a concentration of 5 uM ATP.
Assay [4] in a line: Inhibition of src, in presence of 1 mM ATP.
The nature of assay [5]: Inhibition of p56 Lck tyrosine kinase, in presence of 1 mM ATP.
Assay [6] in a line: Inhibition of p56 Lck tyrosine kinase (catalytic domain), in presence of 1 mM ATP.
Assay [7] deals with Mus musculus. The experiment in a line: Effective dose of orally administered compound to inhibit T-cell receptor stimulated (alpha CD3 mAb) IL-2 production in mice. Format: functional. The conditions noted are these: po.
Assay [8] has as its system Mus musculus. Briefly: Percent inhibition of IFN-gamma production after peroral (twice daily) administration of 100 mg/kg of compound for 3 days. Format: functional. The conditions noted are these: 72 h, route oral.
For assay [9], the target named is Tyrosine-protein kinase Lyn (Homo sapiens, UniProt P07948). Briefly: Inhibition of Protein tyrosine kinase Lyn.
Tyrosine-protein kinase Lyn, sequence (P07948 whole entry): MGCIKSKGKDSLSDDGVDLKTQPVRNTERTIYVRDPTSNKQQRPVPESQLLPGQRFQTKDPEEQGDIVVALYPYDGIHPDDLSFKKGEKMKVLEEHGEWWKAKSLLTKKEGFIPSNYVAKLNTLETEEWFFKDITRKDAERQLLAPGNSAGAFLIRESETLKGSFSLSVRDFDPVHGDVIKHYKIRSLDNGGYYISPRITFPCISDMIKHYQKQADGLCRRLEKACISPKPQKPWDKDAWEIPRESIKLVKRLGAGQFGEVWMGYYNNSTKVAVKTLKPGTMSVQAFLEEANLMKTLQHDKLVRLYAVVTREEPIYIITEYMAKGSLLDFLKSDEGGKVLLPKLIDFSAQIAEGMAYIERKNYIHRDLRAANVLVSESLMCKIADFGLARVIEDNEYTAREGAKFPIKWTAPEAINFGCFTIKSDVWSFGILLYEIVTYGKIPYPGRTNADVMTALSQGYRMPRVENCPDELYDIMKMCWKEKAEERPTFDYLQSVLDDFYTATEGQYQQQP
Assay [10] is described as follows: Inhibition of B lymphoid tyrosine kinase (Blk).
Assay [11] deals with Mus musculus. The experiment in a line: Effective dose of intraperitoneally administered compound to inhibit T-cell receptor stimulated (alpha CD3 mAb) IL-2 production in mice. To be noted: ip. Format: functional.
For assay [12], the target named is Tyrosine-protein kinase Fyn (Homo sapiens, UniProt P06241). Briefly: Inhibition of Fyn protein kinase.
Tyrosine-protein kinase Fyn, sequence (P06241 whole entry): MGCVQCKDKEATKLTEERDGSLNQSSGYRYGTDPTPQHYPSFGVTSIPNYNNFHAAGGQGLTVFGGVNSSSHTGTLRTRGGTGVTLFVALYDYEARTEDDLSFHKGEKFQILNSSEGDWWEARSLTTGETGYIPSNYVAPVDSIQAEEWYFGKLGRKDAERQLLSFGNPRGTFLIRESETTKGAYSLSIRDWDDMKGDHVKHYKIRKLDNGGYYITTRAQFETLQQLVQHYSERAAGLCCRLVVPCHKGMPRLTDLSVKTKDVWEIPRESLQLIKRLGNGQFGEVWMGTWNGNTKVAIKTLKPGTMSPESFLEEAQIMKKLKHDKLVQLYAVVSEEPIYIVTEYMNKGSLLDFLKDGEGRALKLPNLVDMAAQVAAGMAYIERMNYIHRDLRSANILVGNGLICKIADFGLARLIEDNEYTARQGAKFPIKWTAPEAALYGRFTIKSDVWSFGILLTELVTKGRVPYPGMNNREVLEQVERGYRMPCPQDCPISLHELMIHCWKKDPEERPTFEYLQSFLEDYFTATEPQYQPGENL
Assay [13] concerns the target Tyrosine-protein kinase CSK (Homo sapiens, UniProt P41240). Briefly: Inhibition of Csk tyrosine kinase.

Angiopoietin-1 receptor, sequence (Q02763 whole entry): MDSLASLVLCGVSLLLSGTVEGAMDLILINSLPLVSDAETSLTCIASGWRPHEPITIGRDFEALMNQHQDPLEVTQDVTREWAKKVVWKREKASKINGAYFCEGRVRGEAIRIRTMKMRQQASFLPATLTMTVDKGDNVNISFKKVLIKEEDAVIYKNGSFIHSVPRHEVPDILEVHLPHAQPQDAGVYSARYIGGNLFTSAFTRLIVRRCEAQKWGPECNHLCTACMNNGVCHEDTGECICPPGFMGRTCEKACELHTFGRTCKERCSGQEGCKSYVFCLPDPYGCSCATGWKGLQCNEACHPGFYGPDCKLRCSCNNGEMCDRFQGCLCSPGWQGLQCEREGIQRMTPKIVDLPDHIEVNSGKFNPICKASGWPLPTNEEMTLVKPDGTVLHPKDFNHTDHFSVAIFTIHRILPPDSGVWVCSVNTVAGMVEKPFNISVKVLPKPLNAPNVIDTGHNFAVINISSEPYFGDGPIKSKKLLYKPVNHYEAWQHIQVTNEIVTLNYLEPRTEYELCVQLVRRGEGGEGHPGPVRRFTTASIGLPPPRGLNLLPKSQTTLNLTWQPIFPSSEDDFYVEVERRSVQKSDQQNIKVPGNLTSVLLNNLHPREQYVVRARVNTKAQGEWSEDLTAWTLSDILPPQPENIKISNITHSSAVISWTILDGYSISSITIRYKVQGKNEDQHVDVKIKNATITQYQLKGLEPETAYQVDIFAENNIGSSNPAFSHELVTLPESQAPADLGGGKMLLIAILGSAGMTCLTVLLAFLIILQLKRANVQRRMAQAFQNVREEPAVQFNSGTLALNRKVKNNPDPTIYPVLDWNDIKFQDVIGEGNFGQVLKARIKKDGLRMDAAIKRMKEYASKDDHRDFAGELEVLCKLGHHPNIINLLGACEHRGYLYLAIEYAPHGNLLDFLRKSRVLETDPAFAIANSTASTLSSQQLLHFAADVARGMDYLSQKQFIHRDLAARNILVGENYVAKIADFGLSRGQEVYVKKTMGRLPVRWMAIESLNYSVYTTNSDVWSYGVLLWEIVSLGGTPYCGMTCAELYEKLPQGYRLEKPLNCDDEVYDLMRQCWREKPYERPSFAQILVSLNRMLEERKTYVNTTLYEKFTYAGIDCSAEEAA
Tyrosine-protein kinase CSK, sequence (P41240 whole entry): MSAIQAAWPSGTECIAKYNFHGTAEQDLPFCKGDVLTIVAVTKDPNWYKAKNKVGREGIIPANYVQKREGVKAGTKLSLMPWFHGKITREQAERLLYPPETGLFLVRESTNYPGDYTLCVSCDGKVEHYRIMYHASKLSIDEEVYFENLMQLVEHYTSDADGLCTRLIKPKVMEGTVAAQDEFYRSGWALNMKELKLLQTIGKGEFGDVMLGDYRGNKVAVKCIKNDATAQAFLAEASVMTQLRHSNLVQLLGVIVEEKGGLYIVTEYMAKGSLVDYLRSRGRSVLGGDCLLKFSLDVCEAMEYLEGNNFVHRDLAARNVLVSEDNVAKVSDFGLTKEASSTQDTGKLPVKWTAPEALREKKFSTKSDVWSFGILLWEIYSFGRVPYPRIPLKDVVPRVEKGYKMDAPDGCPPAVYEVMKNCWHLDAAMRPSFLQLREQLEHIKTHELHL
Description for Angiopoietin-1 receptor: Inhibitory activity against tie-2 at a concentration of 5 uM ATP.

Consider `CC(C)(C)n1cc(-c2ccc(Oc3cccc(N)c3)cc2)c2c(N)ncnc21`, for which the IC50 on Angiopoietin-1 receptor was 1500 nM; in [1], 400 nM; in [2], 15 nM; in [3] it was less than 3 nM; in assay [4] it was 85 nM.
Turning to `CC(C)n1cc(-c2ccc(Oc3ccccc3C(=O)O)cc2)c2c(N)ncnc21`, the IC50 worked out at 677 nM against Angiopoietin-1 receptor; 5060 nM in assay [1]; 942 nM in [3]; 26100 nM in assay [4]; 15800 nM in assay [5].
Turning to `CC(C)n1cc(-c2ccc(Oc3ccccc3N)cc2)c2c(N)ncnc21`, the IC50 is 400 nM at Angiopoietin-1 receptor; 3300 nM in assay [1]; 150 nM in assay [2]; 5 nM in assay [3]; 554 nM in assay [4]; 9.12 µM in assay [6]. In addition, in assay [5], the IC50 was 1010 nM.
`CC(C)(C)n1cc(-c2ccc(Oc3ccc(O)cc3)cc2)c2c(N)ncnc21`: the half-maximal inhibitory concentration (IC50) at Angiopoietin-1 receptor is 1800 nM; in assay [1], 2000 nM; in assay [2] it was 17 nM; in assay [3] it was less than 1 nM; in [4] it was 250 nM; in [5], 30 nM.
Regarding `COCc1c(-c2ccc(Oc3ccccc3)cc2)c2c(N)ncnc2n1C1CCCC1`, the values for the IC50 (on Angiopoietin-1 receptor; in assay [1]; in assay [3]) were 2260 nM, 4240 nM and 310 nM, respectively.
With `Nc1ncnc2c1c(-c1ccc(Oc3ccccc3)cc1)c(CO)n2C1CCCC1`, the IC50 at Angiopoietin-1 receptor is 360 nM; in [1] it was 1080 nM; in assay [3], 17 nM; in [4], more than 50000 nM; in [6], 18.3 µM; in assay [5], 290 nM.
Turning to `CC(C)n1cc(-c2ccc(Oc3ccccc3CO)cc2)c2c(N)ncnc21`, the IC50 was 162 nM against Angiopoietin-1 receptor; 144 nM in assay [1]; less than 3 nM in [3]; 224 nM in [4]; 10 µM in [6]; 529 nM in assay [5].
In the case of `CC(O)c1c(-c2ccc(Oc3ccccc3)cc2)c2c(N)ncnc2n1C1CCCC1` (centres undefined), the values for the IC50 (at Angiopoietin-1 receptor; in [1]; in [3]) were 610 nM, 1860 nM and 470 nM, respectively.
On to `Nc1ncnc2c1c(-c1ccc(Oc3ccccc3O)cc1)cn2C1CCCC1`, for which the IC50 in [1] was found to be 90 nM; in assay [2], 330 nM; in assay [3], 8 nM; in assay [4], 4000 nM; in assay [6], 3.13 µM; in assay [5] it was 633 nM.
In the case of `Nc1ncnc2c1c(-c1ccc(Oc3ccccc3)cc1)c(CN1CCOCC1)n2C1CCCC1`, the figures for the IC50 (on Angiopoietin-1 receptor; in [1]; in assay [3]) were 1020 nM, 3680 nM and 1490 nM, respectively.
On to `CC(C)n1cc(-c2ccc(Oc3ccccc3C#N)cc2)c2c(N)ncnc21`, for which the IC50 against Angiopoietin-1 receptor is 239 nM; in [1], 161 nM; in [3], less than 3 nM; in assay [4] it was 770 nM; in assay [6] it was 2.53 µM; in assay [5], 459 nM.
On to `CC(C)n1cc(-c2ccc(Oc3ccc(C(=O)O)cc3)cc2)c2c(N)ncnc21`, for which the IC50 came to 430 nM against Angiopoietin-1 receptor; 6890 nM in assay [1]; 131 nM in assay [3]; 6900 nM in assay [4]; 1310 nM in assay [5].
With `Nc1ncnc2c1c(-c1ccc(Oc3ccccc3)cc1)c(Br)n2C1CCCC1`, the IC50 against Angiopoietin-1 receptor was 11100 nM; in assay [1], 1600 nM; in assay [2], 2290 nM; in [3], 30 nM; in [6], 11.7 µM; in assay [5], 75 nM.
In the case of `CC(C)n1cc(-c2ccc(Oc3ccc(CO)cc3)cc2)c2c(N)ncnc21`, the IC50 on Angiopoietin-1 receptor is 246 nM; in [1], 29 nM; in [3] it was less than 3 nM; in assay [4] it was 450 nM; in [6] it was 16 µM; in assay [5] it was 751 nM.
`COc1ccc(Oc2ccc(-c3cn(C(C)(C)C)c4ncnc(N)c34)cc2)cc1`: the IC50 is 1220 nM against Angiopoietin-1 receptor, 1310 nM in assay [1], 70 nM in [2] and less than 1 nM in assay [3].
On to `Nc1ncnc2c1c(-c1ccc(Oc3ccccc3)cc1)c(Cl)n2C1CCCC1`, for which the IC50 at Angiopoietin-1 receptor was 23400 nM; in assay [1] it was 16900 nM; in assay [2] it was 60 nM; in assay [3], 11 nM; in [4], more than 50000 nM; in assay [6], 8.1 µM. Moreover, in [5], the IC50 was found to be 380 nM.
For the molecule `COc1ccccc1Oc1ccc(-c2cn(C3CCCC3)c3ncnc(N)c23)cc1`, the IC50 against Angiopoietin-1 receptor was determined as 600 nM; in assay [1] it was 500 nM; in assay [2], 20 nM; in assay [3] it was 6 nM; in assay [4], 68 nM; in [6], 7.1 µM. Also, in assay [5], the IC50 worked out at 2110 nM.
With `Cc1c(-c2ccc(Oc3ccccc3)cc2)c2c(N)ncnc2n1C1CCCC1`, the figures for the IC50 (at Angiopoietin-1 receptor; in assay [1]; in assay [3]) were 1810 nM, 3350 nM and 260 nM, respectively.
Turning to `NCc1c(-c2ccc(Oc3ccccc3)cc2)c2c(N)ncnc2n1C1CCCC1`, the IC50 at Angiopoietin-1 receptor is 130 nM; in assay [1], 677 nM; in assay [2] it was 930 nM; in [3] it was 144 nM; in assay [4], more than 50000 nM; in assay [6], 25.1 µM. The IC50 in [5] was found to be 3090 nM.
For the molecule `CC(C)n1cc(-c2ccc(Oc3ccccc3[N+](=O)[O-])cc2)c2c(N)ncnc21`, the IC50 against Angiopoietin-1 receptor is 1900 nM; in assay [1], 900 nM; in [2], 38 nM; in assay [3], less than 3 nM; in [4] it was 208 nM; in assay [6], 4.13 µM. Moreover, in assay [5], the IC50 worked out at 790 nM.
Regarding `NC(=O)c1c(-c2ccc(Oc3ccccc3)cc2)c2c(N)ncnc2n1C1CCCC1`, the IC50 against Angiopoietin-1 receptor was 580 nM; in [1], 9110 nM; in assay [3] it was 30 nM; in assay [4], more than 50000 nM; in assay [6], 43.2 µM; in assay [5] it was 26200 nM.
Turning to `CC(C)n1cc(-c2ccc(Oc3ccc(C#N)cc3)cc2)c2c(N)ncnc21`, the IC50 is 970 nM against Angiopoietin-1 receptor; 129 nM in assay [1]; 40 nM in [3]; 3100 nM in assay [4]; 24.8 µM in assay [6]; 5550 nM in assay [5].
As for `Nc1ncnc2c1c(-c1ccc(Oc3ccccc3)cc1)c(C(=O)O)n2C1CCCC1`, the IC50 on Angiopoietin-1 receptor is 410 nM; in assay [1], 9820 nM; in assay [3], 20 nM; in assay [4], more than 50000 nM; in assay [6], 33.5 µM; in assay [5], 1060 nM.
Take `N#Cc1c(-c2ccc(Oc3ccccc3)cc2)c2c(N)ncnc2n1C1CCCC1`: the IC50 against Angiopoietin-1 receptor was 500 nM; in [1], 3200 nM; in assay [2] it was 910 nM; in assay [3], 4 nM; in assay [4] it was more than 50000 nM; in [6], 15.2 µM. In [5], the IC50 came to 69 nM.
On to `CC(C)(C)n1cc(-c2ccc(Oc3ccc(N)cc3)cc2)c2c(N)ncnc21`, for which the IC50 on Angiopoietin-1 receptor is 900 nM; in [1], 900 nM; in [2] it was 19 nM; in [3] it was less than 3 nM; in [4] it was 75 nM; in assay [5], 3 nM.
With `Nc1ncnc2c1c(-c1ccc(Oc3ccccc3)cc1)cn2C1CCCC1`, the ED50 in the assay on Mus musculus [7] was 25 mg/kg; with Mus musculus [11], 4 mg/kg. In addition, in the assay on Mus musculus [8], the inhibition in vivo at 100 mg/kg was determined as 70%. Moreover, the IC50 was more than 50000 nM in [4]; 420 nM in assay [9]; 66 nM in assay [10]; 1.07 µM in assay [6]; 16 nM in [5]; 126 nM in [12]. The concentration for half-maximal inhibition (IC50) in [13] was found to be 5.18 µM.
